In patent US7144862B2, “Orally administered peptides to ameliorate atherosclerosis” (The Regents of the University of California, priority 2000, dated 2006):

Legend:
[1] = system: C57BL/6J mice fed an atherogenic diet; test: Aortic lesion formation, daily intraperitoneal injection for 16 weeks, atherogenic diet; type: in vivo, mouse; conditions: 5F 20 μg or MoAI 50 μg daily i.p.
Description: The livers were removed and weighed.
Histological evaluations were performed according to the method of Paigen et al. (Paigen et al. (1990) Arteriosclerosis 10: 316–323) with some modifications. Briefly, hearts were fixed for at least one week in the phosphate-buffered formaldehyde solution. After removing the lower ⅔ of the hearts, the remaining tissue was frozen in OCT medium (Tissue-Tek, Miles Inc., Elkhart, Ind.) and sectioned in a cryostat at −20° C. Alternate 20 μm sections were saved on slides, and observed for the beginning of the aortic root. Sections were then collected for an additional 600 μm, or until the aortic cross-section was rounded and the valve cusps were no longer evident. Slides were stained with Oil Red O, and counterstained with hematoxylin. Stained lesion cross-sectional areas were measured in consecutive slides 80 μm apart by image analysis (SigmaScan Pro, SPSS Scientific, Chicago, Ill.), and the average lesion area was determined for each aortic sinus over the 400 μm length (five slides) providing the greatest mean lesion area.

[2] = Plasma cholesterol lipoprotein profiles (CLiP); type: in vivo, mouse; conditions: 16 weeks atherogenic diet, daily i.p.
Description: Plasma cholesterol lipoprotein profiles were measured using our recently-developed CLiP method (Garber et al. (2000) J. Lipid Res. 41:1020–1026). Briefly, 5 to 10 μl of plasma were analyzed using a single Superose 6 (Pharmacia, Piscataway N.J.) column. Immediately following the column, cholesterol reagent was introduced through a mixing tee, and the eluent:reagent mixture entered a post-column reaction coil. Cholesterol content of the eluent mixture was spectrophotometrically detected at 500 nm, and data points were collected into a computer. The resulting profiles were decomposed into component peaks and analyzed for relative area using PeakFit (SPSS Science, Chicago, Ill.); absolute cholesterol values for total cholesterol and each component peak were determined by comparison with a control sample of known values. In some cases fractions were collected to determine distribution of radioactivity. The CLiP method allowed analysis of individual mouse samples, avoiding the use of pooled samples.

[3] = Antibody detection by indirect ELISA after 16 weeks of daily injection; type: in vivo, mouse; conditions: plasma at conclusion of 16-week injection period
Description: To determine whether daily injections of peptides elicited any immune response in mice, indirect ELISA titration (Engvall (1980) Meth. Enzymol. 70:419–439) was carried out with plasma taken from mice at the time of organ collection (following sixteen weeks of daily injection). Plates were coated with the injected peptides or MoAI (10 μg/ml). Plates were incubated overnight. After thorough washing with borate buffered saline (pH 8.2) containing 0.05% Tween 20, and blocking with buffer (0.1% gelatin and 0.1% BSA in borate buffer) for 1 h, 200 μl of the diluted mouse plasma (1:100 dilution) samples were serially diluted 1:1 with borate-buffered saline. Biotinylated goat antibody to mouse IgG (0.1 μg/ml) was then added to the wells and the plates were treated with SA-HRP (Streptavidin-horse radish peroxidase) for an hour and developed with ABTS and peroxide as substrate. The plates were incubated overnight at room temperature after every addition of antigen/antibody and washed thoroughly with borate buffered saline (pH 8.2) containing 0.05% Tween 20, and blocked with buffer (0.1% gelatin and 0.1% BSA in borate buffer) for 1 h before the next addition.

[4] = Surface pressure measurements: monolayer exclusion pressure; type: physicochemical; conditions: EPC monolayer; reproducibility ± 1 dyn/cm
Description: An insoluble monolayer of egg phosphatidylcholine (EPC) was spread at the air-water interface in a Teflon dish at room temperature to give an initial surface pressure (πi) in the range of 5–45 dyn/cm. A solution of peptides in PBS containing 1.5M Gdn. HCl was carefully injected in to the subphase to give a final concentration of 50 μg/dL. The Gdn. HCl was diluted in the subphase to a final concentration of ≦1 mM to allow the peptides to renature. The subphase was stirred continuously and the increase in EPC monolayer surface pressure (Δπ) was recorded until a steady state value was obtained. The value of the initial surface pressure (πi) at which the peptides no longer penetrate the EYPC monolayer i.e. the exclusion pressure (πe), was calculated by extrapolating the πi vs Δπ linear regression fit to Δπ=0 dyn/cm.

[5] = DSC, chain melting transition of DMPC; type: physicochemical; conditions: DMPC/peptide 100:1 (mol/mol)
Description: (§1) A known amount of phospholipid was dissolved in chloroform. For one set of samples, peptide was dissolved in methanol and added to a solution of DiPoPE in chloroforn/methanol (2:1, v:v). For both, pure lipid samples and the organic solutions of lipid and peptide, solvent was removed under a slow stream of nitrogen. Residual solvent was removed under vacuum. […] For DMPC, four consecutive scans with a 60 minute equilibration time between scans were taken. DSC thermograms were analyzed using the software provided by MicroCal Inc., Amherst, Mass., and Origin, version 5.0.
The effect of these 18A analogues on the chain melting transition of multilamellar vesicles of DMPC was studied by DSC using peptide-lipid mixtures at 100:1 lipid/peptide molar ratio.

[6] = DSC, bilayer to hexagonal phase transition of DiPoPE; type: physicochemical; conditions: heating scan rate 37°/h
Description: as §1
In the current study we prepared the peptide-lipid mixtures in two ways. One was by adding the peptide in organic solvent to the lipid in organic solvent followed by depositing the material as a film and subsequently hydrating with buffer. In the other method, the peptide and lipid were mixed after each was hydrated separately. If the mixture comes to equilibrium prior to the DSC analysis, it should not matter how the peptide and lipid are originally mixed. However, membrane systems can equilibrate slowly, in which case there may be more peptide in the lipid when it was incorporated at high concentrations into the lipid film.

[7] = Right angle light scattering, dissolution of EPC MLVs; type: physicochemical; conditions: 105 μM EPC, equimolar peptide, 25° C., 30 min
Description: EPC MLVs were prepared by evaporating a solution of EPC (Avanti Polar, AL) under nitrogen and hydrating the lipid film with phosphate-buffered saline (pH 7.4). […] Turbidity clarification was monitored for 30 min.

[8] = mouse, in vivo
Description: The 5F peptide, MoAI, and human apo A-I were labeled with ^125I by the method of Bilheimer et al. (1972) Biochim. Biophys. Acta 260: 212–221. Mice were placed on a modified Thomas-Hartroft atherogenic diet (#TD88051; Teklad, Madison, Wis.) for four weeks at which time daily intraperitoneal injections of peptide or protein dissolved in 200 μl phosphate-buffered saline (PBS) were begun. Animals injected with MoAI or human apo A-I received 50 μg per animal; those injected with 5F received 20 μg. Animals were not fasted for the kinetic studies and blood samples were taken under xylazine:ketamine anesthesia from the retro-orbital sinus at 15, 30, and 45 minutes, and 1, 1.5, 2, 3, 4, 6, 8, 12, and 24 hours following injection. Each animal provided three blood samples at different time points (all retro-orbital and alternating eyes), and at least three samples were collected (from different animals) at each time point. Samples were collected into heparinized capillary tubes, then placed in microcentrifuge tubes; the plasma was separated by centrifugation. Duplicate 10 μl aliquots of each sample were taken for radioactivity determination, using gamma counting (Cobra; Packard Instruments, Downers Grove, Ill.) for 10 minutes per sample. Total plasma volume was calculated as 4.2% body weight. Each sample was expressed as percent of injected CPM in total plasma. Free ^125I was determined by trichloroacetic acid (TCA) precipitation (1 ml of 10% TCA per 10 μl plasma sample). Fitting to the kinetic model was done using all data points, rather than averages at each time point (PKAnalyst, MicroMath Scientific Software, Salt Lake City, Utah).
Treatment groups were compared by two-tailed t-tests or one way analysis of variance (where the data were normally distributed), or by one way analysis of variance on ranks (SigmaStat; SPSS Science, Chicago, Ill.). Kinetics of peptide or protein turnover were analyzed by fitting to a first order one-compartment kinetic model assuming non-equal input and output rates (PKAnalyst; MicroMath Scientific Software, Salt Lake City, Utah).

[9] = mouse, in vivo, ip
Description: Mice were acquired at six weeks of age, and randomized into groups of 20, except that a negative control group of 10 received no treatments and was given standard rodent chow. At eight weeks of age, the treatment groups were placed on a modified Thomas-Hartroft atherogenic diet (#TD88051; Teklad, Madison, Wis.), and injections were begun. […] Animals were injected intraperitoneally daily for 16 weeks, including weekends and holidays.
At the end of the study (week 16), at the last bleeding, the heart and the liver were excised. […] The livers were removed and weighed.

## Ac-DWLKAFYDKVFEKFKEFF-NH2 [Peptide 5F, Ac-D-W-L-K-A-F-Y-D-K-V-F-E-K-F-K-E-F-F-NH2]
[1]
  mean lesion cross-sectional area compared with PBS-injected animals: significantly lower mean lesion area
[2]
  HDL as percent of total cholesterol: (9.24 ± 1.18%*)
  IDL + LDL as percent of total cholesterol: (42.80 ± 2.51%)
  VLDL as percent of total cholesterol: (47.96 ± 3.26%)
[2]; mean ± SEM
  HDL cholesterol: 17.92 ± 2.91 mg/dL
  IDL + LDL cholesterol: 83.37 ± 8.15 mg/dL
  TC (total cholesterol): 201.63 ± 25.21 mg/dL
  VLDL cholesterol: 100.34 ± 15.72 mg/dL
[3]
  antibodies against the injected material: No antibodies were detected
[4]
  Monolayer Exclusion Pressure(πc): 45 dyn/cm
[5]; 1.5 mM DMPC, chain melting transition temperature
  TCM(° C.): 23.2 °C
[5]; enthalpy of the transition
  ΔHCM (kcals/mol): 4.9 kcals/mol
[5]; width at half maximum of the transition
  ΔT1/2 (° C.): 0.5 °C
[6]
  shift in TH of DiPoPE with mol fraction of peptide: linear increase in TH
[7]
  clarification of EPC MLVs: clarified the EPC MLVs to a similar extents
[8]; C57BL/6J, ip
  T½: 6.22 h
[8]
  Max. % in plasma: 14.29%
[9]
  toxicity: No toxicity
